Assay results taken from patent publication US9125913B2, “Bcl-2-selective apoptosis-inducing agents for the treatment of cancer and immune diseases” (AbbVie Inc., priority 2008, dated 2015).

test system: FL5.12/Bcl-2 cells; assay: FL5.12/Bcl-2 cell viability assay; assay type: cell-based, murine; settings: ratio of canine platelet EC50 to FL5.12/Bcl-2 EC50
Source text: FL5.12 is an IL-3 dependent prolymphocytic murine cell line that undergoes apoptosis upon IL-3 withdrawal as a result of the upregulation of pro-apoptotic Bcl-2 proteins such as Bim and Puma. Stable overexpression of anti-apoptotic Bcl-2 protein (FL5.12/Bcl-2) protects against apoptosis induced by IL-3 withdrawal by sequestration of Bim and Puma. […] The ability of compounds to kill FL5.12/Bcl-2 cells upon IL-3 withdrawal is a direct measure of the compounds' ability to inhibit anti-apoptotic Bcl-2 protein function.
Wild type FL5.12/Bcl-2 overexpressing stable transfectants were cultured in RPMI-1640 supplemented with 2 mM L-glutamine, 10% FBS, 1 mM sodium pyruvate, 2 mM HEPES, 1% penicillin/streptomycin (Invitrogen), 57 μM β-ME, and 10% WEHI-3B conditioned medium (source of IL-3) and maintained at 37° C. containing 5% CO2. 1×10^6 cells/ml were washed 1×PBS and resuspended in medium not supplemented with 10% WEHI-3B for 48 hrs prior to cytotoxicity assays. Cells were then treated for an additional 24 hrs in the presence of various concentrations of the indicated compounds. Cell viability was assessed by CellTitre Glo assay (Promega Corp.) according to the manufacturer's recommendations.

| SMILES | Selectivity Ratio (Platelet EC50/FL5.12/Bcl-2 EC50) |
| --- | --- |
| CN(C)CCCOc1ccc(S(=O)(=O)NC(=O)c2ccc(N3CCN(CC4=C(c5ccc(Cl)cc5)CC(C)(C)CC4)CC3)cc2Oc2cccc3[nH]ccc23)cc1[N+](=O)[O-] [Example 106, 4-(4-{[2-(4-chlorophenyl)-4,4-dimethylcyclohex-1-en-1-yl]methyl}piperazin-1-yl)-N-({4-[3-(dimethylamino)propoxy]-3-nitrophenyl}sulfonyl)-2-(1H-indol-4-yloxy)benzamide] | 1657 |

test system: GST-Bcl-2; assay: TR-FRET binding assay, Bcl-2; settings: TR-FRET Ki values
Summary of the method: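 Ki values come from Wang's competitive-binding equation applied to TR-FRET signal (excitation 340/35 nm; emission 520/525 nm F-Bak peptide, 495/510 nm Tb antibody). Protein, probe and antibody incubated with compound 3 h at room temperature; dilution series began at 50 μM as 2× stock in 10% DMSO.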

| SMILES | Binding selectivity ratio (Bcl-XL Ki/Bcl-2 Ki) |
| --- | --- |
| CC1(C)CCC(CN2CCN(c3ccc(C(=O)NS(=O)(=O)c4ccc(NCC5CCOCC5)c([N+](=O)[O-])c4)c(Oc4cccc5c4CCNC5)c3)CC2)=C(c2ccc(Cl)cc2)C1 [EXAMPLE 399, 4-(4-{[2-(4-chlorophenyl)-4,4-dimethylcyclohex-1-en-1-yl]methyl}piperazin-1-yl)-N-({3-nitro-4-[(tetrahydro-2H-pyran-4-ylmethyl)amino]phenyl}sulfonyl)-2-(1,2,3,4-tetrahydroisoquinolin-5-yloxy)benzamide] | >225764.520763495 |
| CC1(C)CCC(CN2CCN(c3ccc(C(=O)NS(=O)(=O)c4ccc(NC[C@H]5CCCO5)c([N+](=O)[O-])c4)c(Oc4ccc5[nH]ccc5c4)c3)CC2)=C(c2ccc(Cl)cc2)C1 [EXAMPLE 370, 4-(4-{[2-(4-chlorophenyl)-4,4-dimethylcyclohex-1-en-1-yl]methyl}piperazin-1-yl)-2-(1H-indol-5-yloxy)-N-[(3-nitro-4-{[(2R)-tetrahydrofuran-2-ylmethyl]amino}phenyl)sulfonyl]benzamide] | >729.9 |
| CC1(C)CCC(CN2CCN(c3ccc(C(=O)NS(=O)(=O)c4ccc(OC5CCN(C6CCOCC6)CC5)c([N+](=O)[O-])c4)c(Oc4ccc5[nH]ccc5c4)c3)CC2)=C(c2ccc(Cl)cc2)C1 [EXAMPLE 389, 4-(4-{[2-(4-chlorophenyl)-4,4-dimethylcyclohex-1-en-1-yl]methyl}piperazin-1-yl)-2-(1H-indol-5-yloxy)-N-({3-nitro-4-[(1-tetrahydro-2H-pyran-4-ylpiperidin-4-yl)oxy]phenyl}sulfonyl)benzamide] | 685.5 |
| CC1(C)CCC(CN2CCN(c3ccc(C(=O)NS(=O)(=O)c4ccc(NC5CCN(CCn6cccn6)CC5)c([N+](=O)[O-])c4)c(Oc4ccc5[nH]ccc5c4)c3)CC2)=C(c2ccc(Cl)cc2)C1 [EXAMPLE 243, 4-(4-{[2-(4-chlorophenyl)-4,4-dimethylcyclohex-1-en-1-yl]methyl}piperazin-1-yl)-2-(1H-indol-5-yloxy)-N-{[3-nitro-4-({1-[2-(1H-pyrazol-1-yl)ethyl]piperidin-4-yl}amino)phenyl]sulfonyl}benzamide] | >2357.6 |
| CC(c1ccccc1-c1ccc(Cl)cc1)N1CCN(c2ccc(C(=O)NS(=O)(=O)c3ccc(NC4CCN(C)CC4)c([N+](=O)[O-])c3)c(Oc3cccc4[nH]ccc34)c2)CC1 (centres unmarked) [EXAMPLE 206, 4-{4-[1-(4′-chloro-1,1′-biphenyl-2-yl)ethyl]piperazin-1-yl}-2-(1H-indol-4-yloxy)-N-({4-[(1-methylpiperidin-4-yl)amino]-3-nitrophenyl}sulfonyl)benzamide] | >7916.4 |
| CC(C1=C(c2ccc(Cl)cc2)CC(C)(C)CC1)N1CCN(c2ccc(C(=O)NS(=O)(=O)c3ccc(NCCCN4CCOCC4)c([N+](=O)[O-])c3)c(Oc3ccc4[nH]ccc4c3)c2)CC1 (centres unmarked) [EXAMPLE 257, 4-(4-{1-[2-(4-chlorophenyl)-4,4-dimethylcyclohex-1-en-1-yl]ethyl}piperazin-1-yl)-2-(1H-indol-5-yloxy)-N-({4-[(3-morpholin-4-ylpropyl)amino]-3-nitrophenyl}sulfonyl)benzamide] | 100.2 |
| CC1(C)CCC(CN2CCN(c3ccc(C(=O)NS(=O)(=O)c4ccc(NN5CCCCC5)c([N+](=O)[O-])c4)c(Oc4cccc5[nH]ccc45)c3)CC2)=C(c2ccc(Cl)cc2)C1 [EXAMPLE 283, 4-(4-{[2-(4-chlorophenyl)-4,4-dimethylcyclohex-1-en-1-yl]methyl}piperazin-1-yl)-2-(1H-indol-4-yloxy)-N-{[3-nitro-4-(piperidin-1-ylamino)phenyl]sulfonyl}benzamide] | >13.9 |
| CN(C)CCNc1ccc(S(=O)(=O)NC(=O)c2ccc(N3CCN(Cc4ccccc4-c4ccc(Cl)cc4)CC3)cc2Oc2ccccc2)cc1[N+](=O)[O-] [Example 153, 4-{4-[(4′-chloro-1,1′-biphenyl-2-yl)methyl]piperazin-1-yl}-N-[(4-{[2-(dimethylamino)ethyl]amino}-3-nitrophenyl)sulfonyl]-2-phenoxybenzamide] | 351 |
| CC1(C)CCC(CN2CCN(c3ccc(C(=O)NS(=O)(=O)c4cnc(OCCC5CCCO5)c(Cl)c4)c(Oc4cccc5[nH]ncc45)c3)CC2)=C(c2ccc(Cl)cc2)C1 (centres unmarked) [EXAMPLE 461, 4-(4-{[2-(4-chlorophenyl)-4,4-dimethylcyclohex-1-en-1-yl]methyl}piperazin-1-yl)-N-{[5-chloro-6-(2-tetrahydrofuran-2-ylethoxy)pyridin-3-yl]sulfonyl}-2-(1H-indazol-4-yloxy)benzamide] | 39.44 |
| COCCOCCNc1ccc(S(=O)(=O)NC(=O)c2ccc(N3CCN(CC4=C(c5ccc(Cl)cc5)CC(C)(C)CC4)CC3)cc2Oc2ccc3[nH]ccc3c2)cc1[N+](=O)[O-] [EXAMPLE 298, 4-(4-{[2-(4-chlorophenyl)-4,4-dimethylcyclohex-1-en-1-yl]methyl}piperazin-1-yl)-2-(1H-indol-5-yloxy)-N-[(4-{[2-(2-methoxyethoxy)ethyl]amino}-3-nitrophenyl)sulfonyl]benzamide] | 1415.7 |
| CCN1CCCC1CNC(=O)c1cc(S(=O)(=O)NC(=O)c2ccc(N3CCN(Cc4ccccc4-c4ccc(Cl)cc4)CC3)cc2Oc2ccccc2)ccc1OC (centres unmarked) [Example 33, 4-{4-[(4′-chloro-1,1′-biphenyl-2-yl)methyl]piperazin-1-yl}-N-{[3-({[(1-ethylpyrrolidin-2-yl)methyl]amino}carbonyl)-4-methoxyphenyl]sulfonyl}-2-phenoxybenzamide] | 49.9 |
| CC1(C)CCC(CN2CCN(c3ccc(C(=O)NS(=O)(=O)c4ccc(NC5CCOCC5)c([N+](=O)[O-])c4)c(Oc4ccc5[nH]ccc5c4)c3)CC2)=C(c2ccc(Cl)cc2)C1 [EXAMPLE 263, 4-(4-{[2-(4-chlorophenyl)-4,4-dimethylcyclohex-1-en-1-yl]methyl}piperazin-1-yl)-2-(1H-indol-5-yloxy)-N-{[3-nitro-4-(tetrahydro-2H-pyran-4-ylamino)phenyl]sulfonyl}benzamide] | >2090.0 |
| CC1(C)CCC(CN2CCN(c3ccc(C(=O)NS(=O)(=O)c4ccc(OC[C@H]5COCCO5)c([N+](=O)[O-])c4)c(Oc4ccc5[nH]ccc5c4)c3)CC2)=C(c2ccc(Cl)cc2)C1 [EXAMPLE 346, 4-(4-{[2-(4-chlorophenyl)-4,4-dimethylcyclohex-1-en-1-yl]methyl}piperazin-1-yl)-N-({4-[(2R)-1,4-dioxan-2-ylmethoxy]-3-nitrophenyl}sulfonyl)-2-(1H-indol-5-yloxy)benzamide] | 11405.2 |
| Cc1ccc(S(=O)(=O)NC(=O)c2ccc(N3CCN(Cc4ccccc4-c4ccc(Cl)cc4)CC3)cc2Oc2ccccc2)cc1 [Example 61, 4-{4-[(4′-chloro-1,1′-biphenyl-2-yl)methyl]piperazin-1-yl}-N-[(4-methylphenyl)sulfonyl]-2-phenoxybenzamide] | >12.6 |
| O=C(NS(=O)(=O)c1ccc(NCC2CCOCC2)c([N+](=O)[O-])c1)c1ccc(N2CCN(Cc3cc(N4CCOCC4)ccc3-c3ccc(Cl)cc3)CC2)cc1Oc1cccc2[nH]ccc12 [EXAMPLE 198, 4-{4-[(4′-chloro-4-morpholin-4-yl-1,1′-biphenyl-2-yl)methyl]piperazin-1-yl}-2-(1H-indol-4-yloxy)-N-({3-nitro-4-[(tetrahydro-2H-pyran-4-ylmethyl)amino]phenyl}sulfonyl)benzamide] | >166.4 |
| CO[C@H]1CC[C@H](CNc2ccc(S(=O)(=O)NC(=O)c3ccc(N4CCN(CC5=C(c6ccc(Cl)cc6)CC(C)(C)CC5)CC4)cc3Oc3cccc4[nH]ncc34)cc2[N+](=O)[O-])CC1 [EXAMPLE 446, Trans-4-(4-{[2-(4-chlorophenyl)-4,4-dimethylcyclohex-1-en-1-yl]methyl}piperazin-1-yl)-2-(1H-indazol-4-yloxy)-N-[(4-{[(4-methoxycyclohexyl)methyl]amino}-3-nitrophenyl)sulfonyl]benzamide] | 508.4 |
